Results reported in PMC10641236, “Influenza A virus replication has a stronger dependency on Raf/MEK/ERK signaling pathway activity than SARS-CoV-2” (Frontiers in Cellular and Infection Microbiology, 2023).
Where two headings read alike, the source gives them in different places.

What was measured:
[1] = tested on: SARS-CoV-2; experiment: Virus yield reduction assay, SARS-CoV-2 (virus titer by RT-qPCR); type: cell-based; conditions: for reduction of virus titer compared to solvent control: 5% FBS; for reduction of virus titer compared to solvent control / reduction of the virus titer: 24 h; for reduction of the virus titer: Calu-3 and Caco-2 cells
Procedure: (§1) Calu-3 and Caco-2 cells were seeded in 24-well plates (Greiner Bio-One GmbH, Frickenhausen, Germany) and grown to 90% confluence. The cells were washed once with infection medium [IMDM supplemented with 0.2% bovine serum albumin (BSA) (Carl Roth GmbH + Co. KG, Karlsruhe, Germany) and 1% penicillin–streptomycin] prior to infection with a multiplicity of infection (MOI) of 0.01 of IAV PR8 or SARS-CoV-2 for 1 h in 200 µL of infection medium per well. Afterwards, the virus inoculum was removed completely, and the cells were washed once with infection medium and then treated with 1 mL per well of different concentrations of zapnometinib in infection medium with 1% dimethyl sulfoxide (DMSO) (Merck Millipore, Burlington, MA, USA) for 24 h at 37°C, 5% CO2. Supernatants were harvested and stored at −80°C for subsequent determination of virus titer and EC50 value. Cell lysates were prepared as described in the “Preparation of cell lysates and WES™ analysis” section for WES™ analysis.
(§2) The viral titers of IAV and SARS-CoV-2 viruses were determined using a real-time one-step multiplex RT-qPCR method. Briefly, viral nucleic acid extraction was performed using a QIAamp Viral RNA Mini Kit (Qiagen, Venlo, Netherlands) according to the manufacturer’s instructions. A TaqMan-based RT-qPCR assay was carried out using a QuantiNova Pathogen kit (Qiagen, Venlo, Netherlands) with specific primers targeting the SARS-CoV-2 N gene (2019-CoV2-N1F: […], 2019-CoV2-N1R: […], 2019-CoV2-N1P [6FAM]: […] [BHQ1]) and M gene for IAV according to the WHO guidelines. The viral genome copies per mL (gc/mL) were determined based on a standard curve prepared with 10-fold serial dilutions of the target gene. For quality control, nuclease-free water was included in each set of extractions as a negative control to monitor any possible cross-contamination. Moreover, an artificial exogenous QuantiNova RNA internal control (Qiagen, Venlo, Netherlands) was included during the nucleic acid purification to monitor the RNA purification efficiency and the RT-PCR amplification. A Rotor-Gene Q™ Real-Time PCR detection system (Qiagen, Venlo, Netherlands) was used for amplification, and the data were analyzed using Q-Rex software (Qiagen, Venlo, Netherlands).
(§3) For EC50 determination, a virus yield reduction assay was performed. The virus titer in the cell culture supernatant was determined and normalized to the solvent control. The EC50 value was determined using the “log(inhibitor) vs. normalized response - Variable slope” equation in GraphPad Prism version 9.4.0.

[2] = tested on: IAV PR8; experiment: Virus yield reduction assay, IAV PR8 (virus titer by RT-qPCR); type: cell-based, Influenza A virus, strain: A/Puerto Rico/8/1934 (H1N1); conditions: 0.2% BSA; for reduction of the virus titer: Calu-3 and Caco-2 cells, 24 h
Procedure: as §1, §2, §3

[3] = tested on: SARS-CoV-2 N; type: cell-based; conditions: MOI 0.01, 24 h; for reduction of SARS-CoV-2 N (N/ERK2 normalized to solvent control): both cell lines
[4] = tested on: ERK2; experiment: ERK2 content in cell lysates by WES; type: cell-based, Homo sapiens; conditions: Caco-2 and Calu-3 cell lysates, 24 h of treatment
Procedure: Cells were lysed using cold modified RIPA buffer [0.24% (w/v) tris base (Sigma-Aldrich, St. Louis, Missouri, USA), 0.88% (w/v) NaCl (Carl Roth, Karlsruhe, Germany), 0.2% (v/v) 500 mM ethylenediaminetetraacetic acid (EDTA) (Sigma-Aldrich, St. Louis, Missouri, USA), 1% (v/v) Triton X-100 (Sigma-Aldrich, St. Louis, Missouri, USA), 0.5% (w/v) sodium deoxycholate (Sigma-Aldrich, St. Louis, Missouri, USA), 0.1% (w/v) sodium dodecyl sulfate (SDS) (Carl Roth, Karlsruhe, Germany), 10% (v/v) glycerol (Carl Roth, Karlsruhe, Germany), 0.05% phenylmethylsulfonyl fluoride (PMSF) (Carl Roth, Karlsruhe, Germany), 0.01% Benzonase® Nuclease (Sigma-Aldrich, St. Louis, Missouri, USA), protease inhibitor cocktail (Roche, Basel, Switzerland), and phosphatase inhibitor cocktail (Roche, Basel, Switzerland) in water]. Determination of the protein concentration was performed using the Pierce™ BCA Protein Assay Kit (Thermo Fisher Scientific Inc., Waltham, MA, USA) according to the manufacturer’s instructions. […] Ratios were calculated from the area under the curve of the respective detected signals.

[5] = tested on: IAV Fukui; design: method as in Laure et al., 2020; conditions: medium containing 0.2% BSA, ref Laure et al., 2020; cited from earlier work
[6] = tested on: SARS-CoV-2 B.1 isolate “FI”; design: method as in Schreiber et al., 2022; conditions: ref Schreiber et al., 2022, read-out: EC50 value against SARS-CoV-2; cited from earlier work
[7] = human, in vivo; cited from earlier work

SMILES: O=C(O)c1ccc(F)c(F)c1Nc1ccc(I)cc1Cl [zapnometinib, 2-(2-chloro-4-iodophenylamino)-N-3,4-difluoro benzoic acid]
- reduction of virus titer compared to solvent control ([1]; 6.25 µM, Caco-2 cells): No significant reduction
- reduction of virus titer compared to solvent control ([1]; 12.5 µM, Caco-2 cells): No significant reduction
- reduction of virus titer compared to solvent control ([1]; 25 µM, Caco-2 cells): > 39%
- reduction of the virus titer ([1]; 25 µM, 0.2% BSA): ≥ 50%
- reduction of virus titer compared to solvent control ([1]; 50 µM, Caco-2 cells): > 60%
- reduction of the virus titer ([1]; 50 µM, 0.2% BSA): ≥ 50%
- reduction of virus titer compared to solvent control ([1]; 75 µM, Caco-2 cells): > 94%
- reduction of the virus titer ([1]; 75 µM, 0.2% BSA): > 90%
- reduction of virus titer compared to solvent control ([1]; 100 µM, Caco-2 cells): > 99%
- reduction of the virus titer ([1]; 100 µM, 0.2% BSA): > 90%
- EC50 ([1]; Caco-2 cells, 0.2% BSA, MOI 0.01, 24 h, read-out: EC50 value against SARS-CoV-2 (FI)): 22.9 µM
- EC50 ([1]; Severe acute respiratory syndrome coronavirus 2, Caco-2, 24 h, Caco-2 cells, 0.2% BSA, MOI 0.01, 24 h, read-out: EC50 value against SARS-CoV-2 (FI)): 22.9 µM
- EC50 ([1]; Severe acute respiratory syndrome coronavirus 2, Caco-2, Caco-2 cells, medium containing 5% FBS, MOI 0.01, treatment 1 h post-infection, titer after 24 h, read-out: EC50 value against SARS-CoV-2): 34.2 µM
- EC50 ([1]; Severe acute respiratory syndrome coronavirus 2, Calu-3, 24 h, Calu-3 cells, 0.2% BSA, MOI 0.01, 24 h, read-out: EC50 value against SARS-CoV-2 (FI)): 19.7 µM
- EC50 ([1]; Severe acute respiratory syndrome coronavirus 2, summary for Calu-3 and Caco-2 cells, 0.2% BSA, read-out: EC50 values for SARS-CoV-2 in both cell lines): ~20 µM
- reduction of the virus titer ([2]; 12.5 µM): ≥ 50%
- reduction of the virus titer ([2]; 25 µM): ≥ 50%
- reduction of the virus titer ([2]; 100 µM): > 90%
- EC50 ([2]; Caco-2 cells, MOI 0.01, 24 h, read-out: EC50 value against IAV PR8): 5.72 µM
- EC50 ([2]; Calu-3 cells, MOI 0.01, 24 h, read-out: EC50 value against IAV PR8): 7.13 µM
- EC50 ([2]; Influenza A virus, PR8, Caco-2, 24 h, Caco-2 cells, MOI 0.01, 24 h, read-out: EC50 value against IAV PR8): 5.72 µM
- EC50 ([2]; Influenza A virus, PR8, Calu-3, 24 h, Calu-3 cells, MOI 0.01, 24 h, read-out: EC50 value against IAV PR8): 7.13 µM
- EC50 ([2]; Influenza A virus, PR8, summary for Calu-3 and Caco-2 cells, read-out: EC50 values for IAV PR8 in both cell lines): < 10 µM
- reduction of SARS-CoV-2 N (N/ERK2 normalized to solvent control) ([3]; 12.5 µM): approximately 50%
- reduction of SARS-CoV-2 N (N/ERK2 normalized to solvent control) ([3]; 50 µM): > 70%
- reduction of SARS-CoV-2 N (N/ERK2 normalized to solvent control) ([3]; 100 µM): > 80%
- lowest concentration at which SARS-CoV-2 N was significantly reduced compared to solvent control [3]: 12.5 µM
- effect on ERK2 content in the cells [4]: does not affect
- EC50 [5]: 4.5 µM
- EC50 [6]: 31.3 µM
- tolerability in phase I clinical trial [7]: well tolerated
